Laboratory results published in patent US20080220446A1, “Method for Detecting and/or Removing Protein and/or Peptide Comprising a Cross-Beta Structure From an Aqueous Solution Comprising a Protein” (priority 2005, published 2008).

Tests used:
platelets = test: Aggregometric assay with washed platelets; assay type: cell-based, human; conditions: 200 μM
Experimental: The presence of protein(s) and/or peptide(s) with amyloid-like misfolded protein conformation on activated blood platelets was tested with washed platelets in an aggregometric assay. Freshly drawn human aspirin free blood was mixed gently with citrate buffer to avoid coagulation. Blood was spinned for 15 minutes at 150*g at 20° C. and supernatant was collected; platelet rich plasma (PRP). […] After spinning down the platelets upon centrifugation for 15 minutes at 330*g at 20° C., the pellet was resuspended in HEPES-Tyrode buffer pH 6.5. Prostacyclin was added to a final concentration of 10 ng/ml, and the solution was centrifuged for 15 minutes at 330*g at 20° C., with a soft brake. The pellet was resuspended in HEPES-Tyrode buffer pH 7.2 in a way that the final platelet number was adjusted to 200,000/μl. Platelets were kept at 37° C. for at least 30 minutes, before use in the assays, to ensure that they were in the resting state.
For the aggregometric assays, 400 μl platelet solution was added to a glass tube with 100 μl containing the agonist of interest, fibrinogen and CaCl2. Final concentrations of fibrinogen and CaCl2 were 0.5 mg/ml and 3 mM, respectively. A stirring magnet was added and the apparatus (Whole-blood aggregometer, Chrono-log, Havertown, Pa., USA) was blanked. Aggregation was followed in time by measuring the absorbance of the solution, that will decrease in time upon platelet aggregation. As a positive control, 0.5 U/ml thrombin was used, or TRAP. Aggregation was followed for 10 minutes. Influence of 200 μM Thioflavin T, 200 μM Congo red or 1 μM tPA on platelet aggregation was analyzed.

[1] = system: tPA binding to amyloid-like aggregates; conditions: ELISAs; patent application P57716EP00 and unpublished data; cited from earlier work
[2] = target: T1, LRP cl-IV binding to BSA-AGE (Bos taurus, UniProt P02769); test: ELISA, interference with LRP cl-IV binding to BSA-AGE; design: species or system human; conditions: concentration series, 50 times diluted LRP cl-IV medium
T1 construct: made in house; host or cells: HEK293E/S (LRP cl-IV, culture supernatant)
T1 sequence (P02769 25-607): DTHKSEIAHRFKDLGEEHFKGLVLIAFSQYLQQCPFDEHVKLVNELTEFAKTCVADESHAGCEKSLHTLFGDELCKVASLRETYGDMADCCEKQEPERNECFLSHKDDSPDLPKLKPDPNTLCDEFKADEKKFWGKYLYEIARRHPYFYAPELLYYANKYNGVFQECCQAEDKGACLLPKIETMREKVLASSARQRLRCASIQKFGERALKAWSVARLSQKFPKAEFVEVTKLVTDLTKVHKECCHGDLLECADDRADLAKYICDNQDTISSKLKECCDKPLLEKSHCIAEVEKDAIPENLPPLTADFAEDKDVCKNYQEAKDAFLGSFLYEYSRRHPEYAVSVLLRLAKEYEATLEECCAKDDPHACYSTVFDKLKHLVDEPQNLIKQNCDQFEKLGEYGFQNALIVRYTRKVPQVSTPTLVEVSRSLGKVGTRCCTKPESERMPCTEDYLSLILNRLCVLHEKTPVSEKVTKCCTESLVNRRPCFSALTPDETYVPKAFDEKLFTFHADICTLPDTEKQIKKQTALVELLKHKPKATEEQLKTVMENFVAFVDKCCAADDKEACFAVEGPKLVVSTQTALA
Experimental: To test whether amyloid-like crossbeta structure binding compounds tPA, Congo red, Thioflavin T and Thioflavin S interfere with LRP cl-IV binding to BSA-AGE, concentration series of the potential inhibitory amyloid binding moieties were tested in the presence of 50 times diluted medium containing LRP cl-IV. The following inhibitors were used: tPA, Congo red, Thioflavin T (ThT) and Thioflavin S (ThS). As a control to tPA, K2P tPA, which lacks the amyloid-like misfolded protein binding finger domain, was included in the analyses. The influence of tPA and K2P tPA was tested in the presence of 10 mM ε-amino caproic acid to avoid binding of the kringle2 domain of tPA and K2P tPA to lysine- and arginine residues. Binding buffer and K2P tPA serve as negative controls in these inhibition studies. The concentration series was measured in triplicate, the values averaged and standard deviations calculated. Background signals obtained with buffer-coated wells were subtracted. Signals obtained with binding of LRP cluster IV to BSA-AGE was set arbitrarily to a reference binding of 100% and signals obtained with the concentration series of misfolded protein binding moieties and K2P tPA were calculated based on this set reference.

Aβ = target: T2, Aβ (Homo sapiens, UniProt P05067, E693Q); test: Binding of Aβ from solution to immobilized ellagic acid; conditions: Nunc Maxisorp, Aβ 100 μg/ml, background subtracted
T2 construct: Human amyloid-β (Ap) (1-40) Dutch type
Experimental: (§1) To test the ability of ellagic acid to bind to misfolded proteins, ellagic acid was immobilized at 100 μg/ml in the wells of a 96-wells Greiner Microlon high binding plate and a Nunc Maxisorp plate. Ellagic acid was coated in 100 mM NaHCO3 pH 9.6, 50 μp/well, 1 h at room temperature with agitation. As a control for subtraction of background signals of binding of misfolded proteins to wells without ellagic acid, wells were coated with buffer only. After blocking of the plates, wells were overlayed with solutions of 0.1/1/10 μg/ml Hb-AGE or 10/100 μg/ml Aβ, in binding buffer (PBS/0.1% Tween20). After washing, binding of Hb-AGE was assessed by overlaying wells with 1 μg/ml hybridoma antibody 4B5, which binds to glycations (^1), followed by RAMPO. Binding of Aβ was visualized using 500× diluted anti-Aβ antibodies (mouse antibody beta-amyloid Clone 6F/3D #M0872, lot 00003503, DAKOCytomation; β-amyloid (H-43) SC-9129, 200 μg/ml rabbit polyclonal IgG, Santa Cruz Biotechnology) and RAMPO/SWARPO in a 1:1 ratio. Finally, wells were overlayed with OPD/H2O2 solution, and H2SO4, before absorbance readings at 490 nm.

[3] = target: T3, tPA binding to immobilized Hb-AGE (Homo sapiens, UniProt P68871+P69905); test: ELISA, influence of ellagic acid on tPA binding to immobilized Hb-AGE
T3 construct: purchased tPA: Boehringer Ingelheim (Actilyse); Hb: Sigma-Aldrich Hb: H7379
T3 sequence (P69905 2-142 limits assumed): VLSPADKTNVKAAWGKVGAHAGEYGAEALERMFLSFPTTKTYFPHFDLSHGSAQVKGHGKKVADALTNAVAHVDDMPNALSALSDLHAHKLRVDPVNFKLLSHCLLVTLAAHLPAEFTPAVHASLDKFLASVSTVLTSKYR
T3 sequence (P68871 2-147 limits assumed): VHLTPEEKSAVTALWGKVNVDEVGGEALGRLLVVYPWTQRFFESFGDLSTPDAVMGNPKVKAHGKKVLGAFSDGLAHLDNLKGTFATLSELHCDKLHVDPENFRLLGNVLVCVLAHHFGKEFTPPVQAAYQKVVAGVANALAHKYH
Experimental: Determination of the influence of ellagic acid on the binding of a suboptimal concentration of tPA to a refined concentration of immobilized Hb-AGE. Parameter: a fixed concentration of tPA, in PBS with 0.1% (v/v) Tween20, 10 mM εACA and 10% DMSO, mixed with ellagic acid. As a positive control, tPA in binding buffer with 10% DMSO was used. This binding was set to 100% and values obtained after co-incubation of Hb-AGE with tPA with ellagic acid, were scaled accordingly. Binding experiments were performed in single wells, in a duplicate experiment. Binding data obtained with this duplicate experiment was averaged. Enhancement of tPA binding was arbitrarily set to values>100%. Inhibition of tPA binding to misfolded Hb-AGE was arbitrarily set to values smaller than 50%. With the chosen experimental lay-out, it can not be distinguished whether ellagic acid influences the interaction between tPA and Hb-AGE by binding to Hb-AGE only or by binding to tPA only or by binding to both tPA and Hb-AGE.
In a next series of experiments, the ability of ellagic acid that interacts with tPA and/or Hb-AGE, to bind to immobilized fb-AGE, heat-denatured misfolded ovalbumin and amyloid-β was analyzed. In a first experiment, the coated misfolded Hb-AGE was first incubated with ellagic acid. After washing, tPA binding was assessed. Similar binding assays are performed with misfolded OVA and Aβ. […]

tPA binding to DOVA = target: T4, tPA binding to DOVA (Gallus gallus, UniProt P01012); test: ELISA, influence of ellagic acid on tPA binding to immobilized misfolded ovalbumin
T4 construct: purchased tPA: Boehringer Ingelheim (Actilyse); OVA: Sigma OVA: A-7641
T4 sequence (P01012 2-386 limits assumed): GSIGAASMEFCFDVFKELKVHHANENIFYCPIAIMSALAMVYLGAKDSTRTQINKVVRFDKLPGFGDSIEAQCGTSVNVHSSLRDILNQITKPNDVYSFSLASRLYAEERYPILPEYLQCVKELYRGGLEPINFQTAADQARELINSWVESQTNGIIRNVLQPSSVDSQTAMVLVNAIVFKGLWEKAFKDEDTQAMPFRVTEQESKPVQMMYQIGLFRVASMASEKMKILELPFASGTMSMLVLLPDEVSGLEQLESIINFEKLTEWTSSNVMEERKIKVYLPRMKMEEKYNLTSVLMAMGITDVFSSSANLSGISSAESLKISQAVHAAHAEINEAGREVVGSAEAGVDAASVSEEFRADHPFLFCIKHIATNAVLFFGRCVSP
Experimental: In a next series of experiments, the ability of ellagic acid that interacts with tPA and/or Hb-AGE, to bind to immobilized fb-AGE, heat-denatured misfolded ovalbumin and amyloid-β was analyzed. In a first experiment, the coated misfolded Hb-AGE was first incubated with ellagic acid. After washing, tPA binding was assessed. Similar binding assays are performed with misfolded OVA and Aβ. Finally, concentration series of ellagic acid are used in the binding studies.
Ellagic acid was co-incubated with 0.5 nM tPA. Controls: 1 mM ThT with 0.5 nM tPA, 0.5 mM CR with 0.5 nM tPA, 0.5 nM tPA without compound and buffer without tPA. Next, coated ELISA plates were first -pre-incubated with ellagic acid (for 30 minutes) followed by tPA incubation (for 30 minutes). For similar ELISA's with DOVA and Aβ(1-40) E22Q, 1 μg/ml DOVA or Aβ was coated and overlayed with 80 nM tPA. Subsequently, DOVA or Aβ coated wells and buffer-coated control wells were first incubated with 500 μg/ml ellagic acid, followed by an overlay with tPA.

Hb-AGE = target: T5, Hb-AGE (Homo sapiens, UniProt P68871+P69905); test: Binding of Hb-AGE from solution to immobilized ellagic acid; conditions: Hb-AGE 10 μg/ml, background subtracted
T5 construct: purchased Sigma-Aldrich H7379
T5 sequence (P69905 2-142 limits assumed): as the sequence (P69905 2-142 limits assumed) above
T5 sequence (P68871 2-147 limits assumed): as the sequence (P68871 2-147 limits assumed) above
Experimental: as §1

fibronectin F4,5 = target: T6, fibronectin F4,5 (Homo sapiens, UniProt P02751); test: Affinity determination ELISA, fibronectin F4,5 on coated (mis)folded proteins; assay type: binding; conditions: coated protein as labelled
T6 construct: human fibronectin finger 4,5 (Fn F4,5) fragment; made in house; host or cells: HEK293E
T6 sequence (P02751 182-276 limits assumed): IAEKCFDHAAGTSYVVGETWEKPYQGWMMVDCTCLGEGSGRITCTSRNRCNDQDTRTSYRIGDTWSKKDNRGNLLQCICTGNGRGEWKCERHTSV
Text: (§2) Synthetic genes of human BiP, human fibronectin finger 4,5 (Fn F4,5) fragment, and human tissue-type plasminogen activator finger EGF (tPA F-EGF) fragment were ordered from Geneart (Regensburg, Germany). These DNA constructs were digested using BamHI and NotI, and ligated into vector pABC674 (ABC-expression facility, Utrecht University, The Netherlands), which contains a carboxy-terminal FLAG-tag—His-tag. HEK293E cells were transiently transfected with these constructs using the polyethylene-imine method, and grown for 5-6 days.
(§3) Denatured proteins and their native controls BSA (Sigma, A7906), glycated BSA, Hb (Sigma, H7605), glycated Hb, ovalbumin (Sigma, A6741), heat-denatured misfolded ovalbumin, human γ-globulins (Sigma, G4386), heat-denatured misfolded γ-globulins, alkyl-γ-globulins, lysozyme (ICN Biochemicals, 100831) and alkyl-lysozyme were coated on ELISA plates (Greiner Microlon high-binding, 655092) in 50 mM NaHCO3-buffer pH 9.6. The plates were blocked using Blocking reagent (Roche 1112589). […] Bound protein is detected by the FLAG-tag using 1:3000 anti-FLAG-HRP (Sigma A-8592) in PBS-T, or by 1:1000 Ni-NTA-HRP (Qiagen 34530) in PBS-T. The HRP reaction Is performed using the TMB substrate (Biosource 4501103 or Tebu Bio 101TMB100-500), stopped using 10% H2SO4 and absorbance was measured at 450 nm.

BiP = target: T7, BiP (Homo sapiens, UniProt P11021); test: Affinity determination ELISA, BiP on coated (mis)folded proteins; assay type: binding; conditions: coated protein as labelled
T7 construct: made in house; host or cells: HEK293E
T7 sequence (P11021 19-654): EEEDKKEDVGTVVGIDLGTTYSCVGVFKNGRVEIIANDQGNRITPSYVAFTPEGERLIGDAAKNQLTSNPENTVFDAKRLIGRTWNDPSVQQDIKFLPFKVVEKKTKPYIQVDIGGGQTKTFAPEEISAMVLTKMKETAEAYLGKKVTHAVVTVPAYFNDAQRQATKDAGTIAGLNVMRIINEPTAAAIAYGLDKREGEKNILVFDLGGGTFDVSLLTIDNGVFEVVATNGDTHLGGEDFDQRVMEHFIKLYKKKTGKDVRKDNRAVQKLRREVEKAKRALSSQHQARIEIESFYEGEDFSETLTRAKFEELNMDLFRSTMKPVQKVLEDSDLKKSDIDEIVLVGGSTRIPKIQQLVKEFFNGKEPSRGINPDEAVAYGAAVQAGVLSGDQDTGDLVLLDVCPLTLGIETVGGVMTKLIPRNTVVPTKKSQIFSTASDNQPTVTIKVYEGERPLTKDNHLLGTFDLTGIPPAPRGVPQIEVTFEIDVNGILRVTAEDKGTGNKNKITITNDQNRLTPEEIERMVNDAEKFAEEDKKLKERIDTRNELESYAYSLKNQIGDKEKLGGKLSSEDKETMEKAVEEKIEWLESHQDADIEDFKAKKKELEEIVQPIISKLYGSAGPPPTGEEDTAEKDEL
Text: as §2, §3

## Nc1c(/N=N/c2ccc(-c3ccc(/N=N/c4cc(S(=O)(=O)O)c5ccccc5c4N)cc3)cc2)cc(S(=O)(=O)O)c2ccccc12 [Congo red]
platelets; Homo sapiens, Platelet, read-out: inhibition of platelet aggregation
  inhibition at 200 µM: ≤ 30%
[1]
  competition for tPA binding to amyloid-like aggregates: can efficiently compete for tPA binding
[2]
  influence on binding of LRP cl-IV to BSA-AGE: inhibit binding of LRP cl-IV to BSA-AGE to a large extent

## Cc1ccc2c(c1)sc(-c1ccc(N(C)C)cc1)[n+]2C.[Cl-] [ThT, Thioflavin T]
platelets
  inhibition of platelet aggregation: up to 45%
[1]
  competition for tPA binding to amyloid-like aggregates: did not inhibit tPA binding at all
[2]
  influence on binding of LRP cl-IV to BSA-AGE: do not interfere

## O=c1oc2c(O)c(O)cc3c(=O)oc4c(O)c(O)cc1c4c23 [ellagic acid]
Aβ
  Signal: 0.054 a.u.
[3]; ELISA
  influence on tPA binding to Hb-AGE: stimulator of tPA binding
[3]; pre-incubation of coated Hb-AGE or misfolded OVA, then tPA
  direct interaction with immobilized misfolded protein: binds directly to misfolded protein
tPA binding to DOVA
  influence on tPA binding to DOVA: stimulator of tPA binding
Hb-AGE; Greiner Microlon
  Signal: 0.13 a.u.
Hb-AGE; Nunc Maxisorp
  Signal: 0.15 a.u.

## Freshly dissolved lysozyme: lysozyme (ICN Biochemicals)
Fibronectin F4,5
  affinity for fibronectin F4,5: high affinity

## heat-denatured BSA: heat-denatured bovine serum albumin
BiP
  binding of BiP: not
